Measured values from US20110028561A1, “PROTECTION OF NEURAL RETINA BY REDUCTION OF ROD METABOLISM” (CHILDREN'S MEDICAL CENTER CORPORATION, priority 2008, published 2011).
“Also recorded” adds a separate entry of the source.

How the values were obtained:
[1] = tested on: rats with oxygen-induced retinopathy (OIR); assay: Electroretinography in rats with oxygen-induced retinopathy (Example 1); format: in vivo, rat (Sprague-Dawley)
Description: Rats with oxygen-induced retinopathy (OIR) are a common model of human retinopathy of prematurity (ROP). Both OIR and ROP are characterized by abnormal retinal vasculature and by lasting dysfunction of the neural retina. Recent findings in OIR rats imply a causal role for the rods in the ROP disease process. However, experimental manipulation of rod function is necessary to establish this role conclusively. The retinoid composition N-Retinylacetamide (all trans), of chemical composition C22H33NO “the drug” was administered in the rat OIR model of ROP.
OIR was induced in four litters of Sprague-Dawley pups (N=24) by exposure to alternating periods of 50% and 10% oxygen from the day of birth (P0) to P14. The light cycle was 12 hr light (10-30 lux) and 12 hr dark; the light-to-dark transition coincided with each oxygen alternation. For 15 days beginning P7, within one hour of this transition, the first and fourth litters were administered 6 mg/kg drug IP; the second and third litters received only vehicle. At P20-22, when marked retinal vascular abnormality is generally observed, electroretinograms were recorded and receptor and post-receptor function evaluated. Treatment effects were evaluated by ANOVA.

[2] = tested on: rats with oxygen-induced retinopathy (OIR); assay: ERG of rod and rod-mediated neural function in the dark-adapted retina of OIR rats (Example 2); format: in vivo, rat (Sprague-Dawley); details: for magnitude of the rod response (Rmp3): p<0.001, most markedly at P30-32, vs vehicle; for recovery from phototransduction, latency to 50% recovery τ: double-flash paradigm
Description: (§1) Retinopathy was induced in Sprague-Dawley pups (N=46) by exposing them to alternating 24 hour periods of 50±1% and 10±1% oxygen from the day of birth to postnatal day (P) 14 as shown in FIG. 1. The light cycle was controlled at 12 hours 10-30 lux and 12 hours dark, except during test days when constant darkness was maintained. The light-to-dark transition was timed to coincide with each oxygen alternation. For two weeks, beginning on P7, during this transition, the first and fourth litters were injected intraperitoneally with 6 mg*kg-1 Ret-NH2; the second and third litters were administered an equivalent volume of vehicle (20% dimethyl sulfoxide, DMSO) alone. The injection schedule was designed to continue over the age range that begins with the onset of rapid increase in the rhodopsin content of the retina and lasts until rhodopsin content exceeds 50% of its adult amount (A. B. Fulton, and B. N. Baker, Invest Ophthalmol Vis Sci (1984) 25:647). […] The rats were assessed following a longitudinal design with tests at P20-22, P30-32, and P60-62. These dates were selected because they capture the height of vascular abnormality, a period of marked recovery, and an adult age, respectively (J. D. Akula, et al., Invest Ophthalmol Vis Sci (2007) 48:4351). At each test age, we studied the function of the neural retina and the morphology of the retinal vasculature using noninvasive techniques.
Shortly (0-2 days) after the final dose, the effects of the drug were assessed on the neural retina by electroretinography (ERG). The timing and intensity of the stimuli, which was designed to assess rod photoreceptor and rod-mediated post-receptor neural function, were under computer control. Two sets of experiments were performed. In the first, rod and rod-mediated neural function in the dark-adapted retina were assessed. In the second, the recovery of the rod photoreceptor from a bright, rhodopsin-bleaching stimulus was assessed. Each set of experiments was performed on approximately half of the subjects from each litter.
Sample traces were recorded these from a P30-32 VCM-treated rat; the sample records in panels D, E, and G were recorded in the same session. Characteristics of the rod photo-response were estimated from the ERG by fitting the Hood and Birch (D. C. Hood, and D. G. Birch, Vis Neurosci (1992) 8:107) formulation of the Lamb and Pugh (T. D. Lamb, and E. N. Pugh, Jr., J Physiol (1992) 449:719; E. N. Pugh, Jr., and T. D. Lamb, Biochim Biophys Acta (1993) 1141:111) model of the biochemical processes involved in the activation of photo-transduction to the a-wave:
P3(i,t)=Rmp3·(1−exp(−½·i·S·(t−td)^2))
In this equation, i is the intensity of the flash (R*) and t is elapsed time (seconds). The free parameters in the model, Rmp3, S, and td, were ensemble fitted using a square error minimization routine. Rmp3 is the amplitude (μV) of the saturated rod response; it is proportional to the magnitude of the dark current and depends upon the number of channels available for closure by light in the ROS (T. D. Lamb, and E. N. Pugh, Jr., J Physiol (1992) 449:719; E. N. Pugh, Jr., and T. D. Lamb, Biochim Biophys Acta (1993) 1141:111). S is a sensitivity (R*-1*sec-2) parameter that is related to the amplification constant, A, which summarizes the kinetics of the series of processes initiated by the photoisomerization of rhodopsin and resulting in closure of the channels in the plasma membrane of the photoreceptor. td is a brief delay (sec). Fitting of the model was restricted to the leading edge of the a-wave.
Following the study of the activation of phototransduction, deactivation of phototransduction was studied in the same rats using a double-flash paradigm. The time course of the rod response was derived to a green conditioning flash (CF) producing approximately 75 R*. This green flash, while producing an a-wave less than half of the saturated rod response, was nevertheless sufficient to fully suppress the dark current. […]

[3] = tested on: rats with oxygen-induced retinopathy (OIR); assay: Recovery of the rod dark current from a rhodopsin-bleaching stimulus in OIR rats (Example 2); format: in vivo, rat (Sprague-Dawley); details: 30 second bleaching exposure, 6 mg/kg IP, vs vehicle, t50 often extrapolated
Description: Retinopathy was induced in Sprague-Dawley pups (N=46) by exposing them to alternating 24 hour periods of 50±1% and 10±1% oxygen from the day of birth to postnatal day (P) 14 as shown in FIG. 1. The light cycle was controlled at 12 hours 10-30 lux and 12 hours dark, except during test days when constant darkness was maintained. The light-to-dark transition was timed to coincide with each oxygen alternation. For two weeks, beginning on P7, during this transition, the first and fourth litters were injected intraperitoneally with 6 mg*kg-1 Ret-NH2; the second and third litters were administered an equivalent volume of vehicle (20% dimethyl sulfoxide, DMSO) alone. […] The rats were assessed following a longitudinal design with tests at P20-22, P30-32, and P60-62. […]
Shortly (0-2 days) after the final dose, the effects of the drug were assessed on the neural retina by electroretinography (ERG). […] In the first, rod and rod-mediated neural function in the dark-adapted retina were assessed. In the second, the recovery of the rod photoreceptor from a bright, rhodopsin-bleaching stimulus was assessed. […]
In the second set of experiments, performed on cohorts (n=22), the recovery of the dark current was assessed from a 30 second light exposure estimated to bleach […] of rhodopsin. […] Following the bleaching exposure, the response to the PF was assessed at two minute intervals for 40-50 minutes. […]

[4] = tested on: rats with oxygen-induced retinopathy (OIR); assay: Arteriolar tortuosity from fundus images analysed with RISA in OIR rats (Example 2); format: in vivo, rat (Sprague-Dawley)
Description: as §1
To assess whether VCM treatment affected the retinal vasculature, wide-field images of the ocular fundus were obtained that show the major vessels of the retina following each ERG session. […] The arterioles were analyzed with RISA (R. Gelman, M. E. Invest Ophthalmol Vis Sci (2005) 46: 4734) custom image analysis software. In agreement with previous reports (J. D. Akula, Invest Ophthalmol Vis Sci (2007) 48:4351; K. Liu, et al., Invest Ophthalmol Vis Sci (2006) 47:2639), the venules were little affected by the induction of retinopathy. […] For each rat, the mean blood vessel integrated curvature across both eyes (median 10 arterioles) was determined to provide a measure of arteriolar tortuosity, TA (radians*pixel^−1), a measure which agrees well with subjective assessments in human subjects (R. Gelman, M. E. Invest Ophthalmol Vis Sci (2005) 46: 4734). […] To test this, the value of TA at P20 was subtracted from the value of TA at P60 in each rat to determine the change in arteriolar tortuosity during the course of the experiment.

visual cycle = details: mouse, dose 6 mg/kg; cited from earlier work
[5] = OIR rats, 6 mg/kg IP for 15 days from P7, ERG at P20-22, vs vehicle

unfavorable effects of rod function ([2]; 6 mg/kg IP): No unfavorable effects | magnitude of the rod response (Rmp3) ([2]; 6 mg/kg IP, listed as Ret-NH2, 6 mg/kg): larger | magnitude of the rod response (Rmp3) ([2]; 6 mg/kg IP, listed as VCM, 6 mg/kg): significantly increased | post-receptor sensitivity (log σ) ([2]; ERG b-wave, Naka-Rushton fit, 6 mg/kg IP, vs vehicle): not affected | saturated amplitude of the b-wave (Vm) ([2]; ERG b-wave, Naka-Rushton fit, 6 mg/kg IP, vs vehicle, listed as Ret-NH2, 6 mg/kg): larger | saturated amplitude of the b-wave (Vm) ([2]; ERG b-wave, Naka-Rushton fit, 6 mg/kg IP, vs vehicle, listed as VCM, 6 mg/kg): significantly (p<0.01) increased | recovery from phototransduction, latency to 50% recovery τ ([2]; 6 mg/kg IP, vs vehicle, listed as Ret-NH2, 6 mg/kg): faster recovery | recovery from phototransduction, latency to 50% recovery τ ([2]; 6 mg/kg IP, vs vehicle, listed as VCM, 6 mg/kg): significantly (p<0.01) faster | effect on rod function ([2]; summary of ERG data): advantageous, if transient, effect | post-receptor function ([2]; summary of ERG data): transient enhancement
Structure (SMILES): CC(=O)NC/C=C(C)/C=C/C=C(C)/C=C/C1=C(C)CCCC1(C)C [N-Retinylacetamide, N-Retinylacetamide (all trans)]
serious, negative alteration of the photoreceptor response ([1]; OIR rats after treatment, 6 mg/kg IP): no evidence of serious, negative alteration | effect on responses originating in the inner retina ([1]; OIR rats, 6 mg/kg IP): favorable effect | amplification constant of phototransduction [1, 5]: Neither the maximal rod response nor the amplification constant of phototransduction were significantly changed | maximal rod response [1, 5]: Neither the maximal rod response nor the amplification constant of phototransduction were significantly changed | post-receptor sensitivity (log s) ([1]; OIR rats, 6 mg/kg IP, P20-22, vs vehicle): unchanged | OFF response to a 400 ms stimulus ([1]; background that suppressed the saturating a-wave by ~90%, drug-treated vs vehicle-treated OIR rats, P20-22): 2 × | time-constant of deactivation of phototransduction ([1]; double-flash protocol, OIR rats, 6 mg/kg IP, P20-22, vs vehicle): significantly shorter | maximal scotopic b-wave amplitude ([1]; drug-treated vs vehicle-treated OIR rats, 6 mg/kg IP, P20-22): twice as large | cone-driven response to 20 Hz flicker ([1]; same background, drug-treated vs vehicle-treated OIR rats, P20-22): 2 × | rod response sensitivity (S) ([2]; 6 mg/kg IP two weeks from P7, tests P20-22, P30-32, P60-62, ANOVA vs vehicle, listed as VCM, 6 mg/kg): no statistically significant effect; also recorded: not significant, but did trend lower at every age | rod-mediated retinal function (photoreceptor and post-receptor neurons) ([2]; P20-22 and P30-32): improved at the earliest test age (P20-22), and even more markedly improved at the second (P30-32) | time to 50% recovery of the saturating rod photo-response after bleach (t50) [3]: not significantly altered overall | arteriolar tortuosity TA, main effect ([4]; OIR rats, 6 mg/kg IP, P20-22 to P60-62, vs vehicle): no main effect | appearance of vascular abnormalities ([4]; OIR rats, VCM regimen 6 mg/kg IP): did not prevent the appearance of vascular abnormalities | change in arteriolar tortuosity ΔP60-P20 (vascular recovery) ([4]; TA at P60 minus TA at P20, t-test p=0.001): more than twice the normal amount | recovery of arteriolar tortuosity TA ([4]; group x age interaction p=0.002, VCM vs vehicle treated rats): recovered more rapidly | suppression of the visual cycle (visual cycle): approximately 50%
